Experimental data: PubChem BioAssay (NCI)
“And” between values parts separate entries of the source, which are not always exact repeats. Identical values can stand only once.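 Tested at 5 concentrations; 48 h exposure; 96-well plates; endpoints linearly interpolated, else capped at highest concentration. GI50 marks 50% less growth. TGI is the concentration that stops growth completely.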

Tests used:
Assay in all cases: growth of human tumour cells (NCI), 48 h
HCT-116 colon = system: HCT-116 colon
HCT-15 colon = system: HCT-15 colon
K-562 leukemia = system: K-562 leukemia
LOX IMVI melanoma = system: LOX IMVI melanoma
M14 melanoma = system: M14 melanoma
MALME-3M melanoma = system: MALME-3M melanoma
MDA-MB-231 breast = system: MDA-MB-231 breast
SW-620 colon = system: SW-620 colon
U251 CNS = system: U251 CNS
UO-31 renal = system: UO-31 renal

Compound	TGI (HCT-116 colon) [µM]	TGI (HCT-15 colon) [µM]	TGI (K-562 leukemia) [µM]	TGI (LOX IMVI melanoma) [µM]	TGI (M14 melanoma) [µM]	TGI (MALME-3M melanoma) [µM]	TGI (MDA-MB-231 breast) [µM]	TGI (SW-620 colon) [µM]	TGI (U251 CNS) [µM]	TGI (UO-31 renal)	GI50 (HCT-116 colon) [µM]	GI50 (HCT-15 colon) [µM]	GI50 (K-562 leukemia) [µM]	GI50 (LOX IMVI melanoma) [µM]	GI50 (M14 melanoma) [µM]	GI50 (MALME-3M melanoma) [µM]	GI50 (SW-620 colon) [µM]	GI50 (U251 CNS) [µM]	GI50 (UO-31 renal) [µM]
OC1C[C@H](c2ccccc2)C2(C(O)c3ccccc3C2O)[C@@H](c2ccccc2)C1 (stereo partly specified)	> 100	> 100	> 100	> 100	> 100	> 100	> 100	> 100	> 100	> 100 µM									
CCOc1ccc2c(c1)c(=O)c1c(NCCN(CC)CC)ccc3nnn2c31	> 44.9	48.2	> 66.2	32	> 54.8	33.8	58.5	31.5	> 58.2										
O=[N+]([O-])c1cccc2nccc(NCCCO)c12	> 100	21.2	49.3	31.7	25.6	22.1	41.4	27.6	31.3	35.3 µM									
CCC(NC1=NCCO1)c1cccs1 (stereo unspecified)	27.1	30.2	47.4	66.7	33.3	25.7	44.6	> 100	26.3	32.7 µM									
Cc1cn(S(=O)(=O)c2ccccc2)c2c(OCc3ccccc3)cc(NS(C)(=O)=O)cc12	> 100	> 100	> 100	> 100	> 100	43.7	32.8	> 100	> 65.7	> 100 µM									
C=CCn1c(-c2ccc([N+](=O)[O-])cc2)csc1=N	> 100	> 100	91.5	70.5	> 100	> 100	> 100	> 100	> 100	> 100 µM									
Cc1ccc(-n2cc([Si](C)(C)C)nn2)s1	> 100	> 100	> 100	> 100	> 100	> 100	> 100	> 100	> 100	> 100 µM									
Cn1c(O)c(C=Nc2ccccc2Cl)c(=O)n(C)c1=O	35.5	41.4	> 100	32.2	48.9	> 100	> 100	> 100	> 100	> 100 µM									
CC(=O)OC1COC(Nc2nc(N)n(C)c(=O)c2N=O)C(OC(C)=O)C1OC(C)=O (stereo unspecified)	> 10			> 10	> 10	> 10	> 10	> 10	> 10										
CN(C)/N=N/c1nc[nH]c1C(N)=O	> 1000	> 1000		> 1000	> 1000	> 1000	> 1000	> 1000	> 1000	96.9 µM and > 793 µM	45.4	73.8	39	29.8	92.8	243	32.9	71.5	24.5
[N-]=[N+]=Nc1c([N+](=O)[O-])c(=O)n2c3c(cccc13)CCC2	30.2	17.8	3.84	28.9	26.2	4.27	25.9	13.9	34.7	28.4 µM									
COc1ccc(C2=NN=C3C(c4ccccc4)=Nc4ccccc4N3C2)cc1	71.2	> 100	> 100	> 100	83.8	66.3	> 100	> 100	> 100	49.8 µM									
CCOC(=O)/C=C(\C(=O)OCC)n1ccc(=O)[nH]c1=O	19.6	21.5	19.1	28.7	31.4	24.2	32.6	7.85	32.6	31.1 µM									
CCOC(=O)N1CCC(=C2c3ccc(Cl)cc3CCc3cccnc32)CC1	32.4	23.4	49.7	74.6	29.1	24.7	42.5	34.6		4.49 µM									
Cc1ccc(N=C2C(=Nc3ccc(C)cc3)N(c3ccc(C)cc3)C(=S)N2C(=O)c2ccccc2)cc1		> 100	> 100		> 100	> 100	> 100	> 100	> 100	> 100 µM									
Oc1cc(Br)cc2cc(Cl)cnc12	> 42	> 100	12.3	> 26.5	10.4	30	> 100	> 46.2	> 82.8	17.4 µM									
